In paper PMC8196580, “Identification of Kaurane-Type Diterpenes as Inhibitors of Leishmania Pteridine Reductase I” (Molecules, 2021):
Where two headings read alike, the source gives them in different places.

How the values were obtained:
L. major [1] = experiment: ChEMBL dataset of pIC50 values against L. major used for the RF model (Table S1); type: cell-based, Leishmania major; note: call rule not given here
L. major [2] = tested on: L. major; parameters: method as in ChEMBL; details: ref ChEMBL, cited from earlier work
[3] = Active/Inactive class assigned to the ChEMBL pIC50 value for Random forest model construction, ref ChEMBL
[4] = ChemBL structures with pIC50 values used for Random forest model construction, L. major
[5] = Active/Inactive class assigned to ChemBL structures for Random forest model construction (Table S1)
[6] = ChemBL structures with pIC50 values used for Random forest model construction (Table S1)

Compound	Outcome (L. major [1]; [3])	pIC50 Value (L. major [2]; [4])	Outcome (L. major [1]; [5])	pIC50 Value (L. major [2]; [6])
CC[C@H](CO)Nc1nc(NCc2ccc(Br)cc2)c2ncn(C(C)C)c2n1 [CHEMBL3423090]	Inactive	4.71	–	–
COc1ccc([C@@H]2COc3c(ccc4occc34)C2)c(OC)c1O [CHEMBL498724]	Inactive	4.76	–	–
COc1cccc2cc(C)cc(O)c12 [CHEMBL2071228]	Inactive	4.30	–	–
COc1ccc(-c2ccc(OC)c3ccccc23)c2c1C=NC(C)(C)C2 [CHEMBL1277742]	Inactive	4.43	–	–
c1ccc(-c2nc3ccccc3[nH]2)cc1 [CHEMBL153535]	–	–	Active	5.46
Clc1ccc2c(N3CCN(Cc4ccccc4)CC3)ccnc2c1 [CHEMBL1256765]	Inactive	4.21	–	–
CC(C)Oc1cc(NC(=N)c2ccccn2)ccc1-c1ccc(-c2ccc(NC(=N)c3ccccn3)cc2OC(C)C)o1 [CHEMBL1275764]	–	–	Active	7.85
COc1ccc(CNC(=N)c2ccc(N3CCN(c4nnc(-c5ccc([N+](=O)[O-])o5)s4)CC3)cc2)cc1.Cl [CHEMBL1783207]	Inactive	4.10	–	–
Cn1cc(/C=N/C(c2ccccc2)c2ccccc2)c2ccccc21 [CHEMBL2071556]	–	–	Active	5.73
COc1cc(OC)c2c(C)[n+](-c3ccccc3)c(C)cc2c1.[Cl-] [CHEMBL3706859]	Inactive	4.33	–	–
Cn1cc(/C=N/Cc2ccccc2)c2ccccc21 [CHEMBL2071559]	–	–	Active	5.54
C=CCOc1ccc(C(=O)/C=C/c2ccc(OC)cc2OC)cc1 [CHEMBL253672]	–	–	Active	5.40
COc1cc(OC)c2c(C)[n+](-c3ccc4ccccc4c3)c(C)cc2c1.F[B-](F)(F)F [CHEMBL479838]	–	–	Active	5.47
CCOC(=O)C1=C(C)NC(=O)NC1c1ccccc1 (stereo not drawn) [CHEMBL507603]	–	–	Active	5.42
Cl.O=[N+]([O-])c1ccc(-c2nnc(N3CCN(c4ccc(C5=NCCCN5)cc4)CC3)s2)o1 [CHEMBL1783211]	Inactive	3.70	–	–
CCC(=O)N1CCCCC1[C@](C)(O)[C@H]1CC[C@H]2[C@@H]3CC[C@H]4C[C@@H](O)CC[C@]4(C)[C@H]3CC[C@@]21C (stereo partly drawn) [CHEMBL1214310]	Inactive	4.27	–	–
O=[N+]([O-])c1ccc2ncnc(Nc3ccccc3Cl)c2c1 [CHEMBL3758623]	Active	5.19	–	–
CN(C)CCNc1nccn2c(-c3ccncc3)c(-c3ccccc3)nc12 [CHEMBL3634363]	Inactive	4.16	–	–
CNc1ccc(Nc2c3ccccc3nc3ccccc23)cc1OC(C)C [CHEMBL439951]	–	–	Active	5.89
O/N=C1/c2ccccc2OC(c2ccc(Cl)cc2)C1n1ccnc1 (stereo not drawn) [CHEMBL4083146]	–	–	Active	6.22
CCCCN1CN(CC(=O)OCC)CSC1=S [CHEMBL4294357]	Inactive	4.44	–	–

Compound	Outcome (L. major [1]; [3])	pIC50 Value (L. major [2]; [4])	Outcome (L. major [1]; [5])	pIC50 Value (L. major [2]; [6])
CC1=C(C(=O)Nc2ccc(C(=O)/C=C/c3ccc(O)cc3)cc2)C(c2cccc(O)c2)NC(=S)N1 (stereo not drawn) [CHEMBL3785704]	–	–	Active	5.98
Cc1ccc(/N=C/c2cn(C)c3ccccc23)cc1 [CHEMBL2071553]	–	–	Active	5.58
COc1ccccc1-c1nnc(-c2ccc(C(=O)N/N=C/c3cccc(F)c3)cc2)o1 [CHEMBL4072092]	Active	5.20	–	–
COc1ccccc1-c1nnc(-c2ccc(C(=O)N/N=C/c3cccc(C)c3)cc2)o1 [CHEMBL4097073]	Inactive	4.40	–	–
C/C=C/c1cc(O)c(OC)c(OC)c1 [CHEMBL489518]	Inactive	3.43	–	–
COc1cccc2cc(C=O)cc(O)c12 [CHEMBL2071232]	Inactive	4.00	–	–
O=[N+]([O-])c1ccc(-c2nnc(NCc3cn(Cc4ccc(Cl)cc4Cl)nn3)s2)o1 [CHEMBL1951534]	Inactive	4.70	–	–
COc1ccccc1-c1nnc(-c2ccc(C(=O)N/N=C/c3ccc(O)cc3O)cc2)o1 [CHEMBL4087969]	–	–	Active	5.42
O=C(c1ccccc1)N1CCN(c2nnc(-c3ccc([N+](=O)[O-])o3)s2)CC1 [CHEMBL195349]	Inactive	4.93	–	–
O=[N+]([O-])c1ccc(-c2nnc(NCc3cn(Cc4ccccc4Cl)nn3)s2)o1 [CHEMBL1951525]	Inactive	4.72	–	–
Cc1ccc(C(=O)N2CCN(c3ccnc4cc(Cl)ccc34)CC2)cc1 [CHEMBL1256729]	Inactive	4.15	–	–
COc1ccc(/C=N/NC(=O)c2ccccc2OC)cc1OC [CHEMBL2382040]	Inactive	4.88	–	–
Fc1ccc(-c2nc3ccccn3c2-c2cccnc2)cc1 [CHEMBL2151875]	Inactive	4.42	–	–
CCCCCCNc1ccc(Nc2c3ccccc3nc3ccccc23)cc1 [CHEMBL299581]	–	–	Active	6.26
Cl.N=C(N)c1ccc(N2CCN(c3nnc(-c4ccc([N+](=O)[O-])o4)s3)CC2)cc1 [CHEMBL1783200]	Inactive	3.95	–	–
CCC/C=C/C=C/c1nc2ccccc2n2cccc12 [CHEMBL3260210]	–	–	Active	5.41
C/C=C(\C)C(=O)N[C@H]1CC[C@]2(C)[C@H]3CC[C@]4(C)[C@@H]([C@H](C)NC)CC[C@H]4[C@@H]3CC[C@H]2[C@H]1OC(C)=O [CHEMBL504924]	–	–	Active	5.82
COc1ccc(/N=C/c2cn(C)c3ccccc23)cc1 [CHEMBL2071557]	–	–	Active	5.46
c1ccc(-c2nc3cnccn3c2-c2ccccc2)cc1 [CHEMBL3634350]	Inactive	4.58	–	–
O=C(/C=C/c1ccc(-n2ccnc2)cc1)c1ccccc1F [CHEMBL571071]	–	–	Active	5.47
Cc1cccc2cc(C3CC(c4sccc4Cl)=NN3)c(Cl)nc12 (stereo not drawn) [CHEMBL2236129]	–	–	Active	5.63

Compound	Outcome (L. major [1]; [3])	pIC50 Value (L. major [2]; [4])	Outcome (L. major [1]; [5])	pIC50 Value (L. major [2]; [6])
CN[C@@H](C)[C@H]1CC[C@H]2[C@@H]3CC[C@H]4C[C@@H](N(C)C(=O)c5ccccc5)CC[C@]4(C)[C@H]3CC[C@]12C [CHEMBL503323]	Active	5.06	–	–
COc1ccccc1-c1nnc(-c2ccc(C(=O)N/N=C/c3ccccc3Cl)cc2)o1 [CHEMBL4088386]	Inactive	4.54	–	–
O=C(C(Cl)CCl)N1c2ccccc2Oc2ccccc21 (stereo not drawn) [CHEMBL3758248]	Active	5.02	–	–
C[C@@H]1CC[C@@]2(OC1)O[C@H]1C[C@H]3C4=CCC5=CC(=O)[C@@H](O)C[C@]5(C)[C@H]4C[C@H](O)[C@]3(C)[C@H]1[C@@H]2C [CHEMBL455616]	Inactive	4.15	–	–
C/C=C/C=C/c1nc2cc(OC)ccc2n2cccc12 [CHEMBL3260207]	–	–	Active	5.52
Fc1ccc(-c2nc3ccccc3[nH]2)cc1 [CHEMBL1596095]	–	–	Active	5.43
COc1cccc(-c2nc3ccccc3[nH]2)c1 [CHEMBL2297908]	–	–	Active	5.46
Cc1ccccc1Cn1cc(CNc2nnc(-c3ccc([N+](=O)[O-])o3)s2)nn1 [CHEMBL1951528]	Inactive	4.60	–	–
CC(C)C1=Cc2ccc3c(c2C(=O)C1=O)C(=O)CCC3(C)C [CHEMBL485479]	Inactive	4.75	–	–
COc1ccccc1-c1nnc(-c2ccc(C(=O)N/N=C/c3cc(O)c(O)cc3O)cc2)o1 [CHEMBL4098126]	–	–	Active	6.01
COc1cc(OC)c2c(C)[n+](-c3ccccc3)c(C)cc2c1.[O-][Cl+3]([O-])([O-])[O-] [CHEMBL3706858]	Inactive	4.58	–	–
CCC/C=C/C=C/c1nc2ccc(OC)cc2n2cccc12 [CHEMBL3260212]	Active	5.13	–	–
O=C(c1ccc(Br)s1)N1CCN(c2nnc(-c3ccc([N+](=O)[O-])s3)s2)CC1 [CHEMBL518866]	Inactive	4.61	–	–
COc1cc(OC)c2c(C)[n+](-c3ccc(O)cc3)c(C)cc2c1.O=C([O-])C(F)(F)F [CHEMBL480760]	Inactive	4.80	–	–
COc1cc(C)cc2c1C(=O)C=C(c1c(C)c(OC)c3ccc(O)c(OC)c3c1O)C2=O [CHEMBL2071223]	–	–	Active	9.82
CCCCOc1ccc(-c2nc3cc([N+](=O)[O-])ccc3[nH]2)cc1 [CHEMBL2297903]	–	–	Active	5.61
O=C(/C=C/c1ccccc1Br)C1=Cc2cc(Cl)ccc2OC1 [CHEMBL1094316]	–	–	Active	5.88
NCCOc1cc(C(=O)Nc2cc(OCCN)c3ccccc3n2)nc(C(=O)Nc2cc(OCCN)c3ccccc3n2)c1 [CHEMBL2349416]	–	–	Active	5.30
COc1cccc(C(=O)/C=C/c2ccc(-n3ccnc3)cc2)c1 [CHEMBL569119]	–	–	Active	5.49
COc1ccccc1-c1nnc(-c2ccc(C(=O)N/N=C/c3ccccn3)cc2)o1 [CHEMBL4069827]	Active	5.04	–	–
Cc1cc2ccc(-c3c(C)cc(O)c4c(O)cccc34)c(O)c2c(C)n1 [CHEMBL222338]	Inactive	4.00	–	–
